The results in this text go back to patent US20160361311A1, “LIGANDS THAT TARGET HEPATITIS C VIRUS E2 PROTEIN” (AMERICAN UNIVERSITY OF CAIRO, priority 2014, published 2016).

In data set [1] the test system is RD114pp. The data set is described as follows: RD114pp infection of Huh-7 cells (luciferase). The data set is classed as cell-based, feline endogenous virus RD114. The following applies: Feline endogenous virus RD114, Huh-7, 30 h, read-out: IC50 RD114pp. The protocol:
(§1) Pseudotyped retroviral particles harboring HCV envelope proteins (HCVpp) from different genotypes were produced as described previously. A plasmid encoding the feline endogenous virus RD114 glycoprotein [35] was used for the production of RD114pp. Both HCVpp and RD114pp expressed Firefly luciferase.
(§2) To identify ligands that inhibit HCV infection, Huh-7 cells were seeded in 96-well plates and treated the day after with six different concentrations of each ligand diluted in DMSO in duplicate using a Zephyr automated liquid handling workstation (Caliper BioSciences, Hopkinton, Mass.). The final concentration of DMSO (1%) was adjusted to be the same for all ligand concentrations. Cells treated with DMSO were used as negative controls. Cells treated with different concentrations of anti-CD81 (JS-81 from BD Pharmingen, San Jose, Calif.) 1 hour before infection, were also used as positive controls. The third day, RD114pp, HCVpp or HCVcc were inoculated and incubated for 30 hours at 37° C. Firefly and Gaussia luciferase assays were performed as indicated by the manufacturer (Promega, San Luis Obispo, Calif.).
Pseudotyped retroviral particles harboring the envelope protein of an endogenous feline retrovirus (RD114pp) were first used to determine the specificity and the safety of molecules.

In data set [2] the test system is HCVpp 2a. The data set is described as follows: HCVpp 2a infection of Huh-7 cells, 96-well (luciferase). The following applies: Hepatitis C virus, Huh-7, 30 h, read-out: IC50 HCVpp. The class given is cell-based, HCV. On the procedure: as §1, §2
(§3) The remaining ligands were next tested against pseudotyped retroviral particles harboring genotype-2a HCV envelope proteins (HCVpp 2a), cell culture produced HCV particles (HCVcc) or RD114pp. As a positive control, an anti-CD81 antibody was used in parallel.

In data set [3] the test system is HCVcc. Nature of the data set: HCVcc infection of Huh-7 cells (Gaussia luciferase). The data set is classed as cell-based, HCV. The following applies: Hepatitis C virus, Huh-7, 30 h, read-out: IC50 HCVcc. The protocol:
The cell culture-produced HCV particles (HCVcc) used in this study were based on the JFH1 strain [36] and were prepared as described previously. They were engineered to express the A4 epitope, titer-enhancing mutations and Gaussia luciferase.
as §2, §3

Data set [4] relates to HCVpp 1a. Nature of the data set: HCVpp genotype infection of Huh-7 cells, 24-well. The following applies: Hepatitis C virus. The class given is cell-based, HCV. On the procedure: as §1, §2
(§4) The analysis of the effect of 281816 ligand on Huh-7 infection by HCVpp bearing envelope proteins from different genotypes was performed in 24-well plates using the method described above. This ligand was also screened for toxicity to the hepatocytes using the MTS (3-(4,5-dimethylthiazol-2-yl)-5-(3-carboxymethoxyphenyl)-2-(4-sulfophenyl)-2Htetrazolium) assay.
(§5) To determine if 281816 would inhibit HCV genotypes other than 2a, a series of infection assays were performed with HCVpp bearing envelope proteins from a number of different HCV genotypes.

Data set [5] has as its system HCVpp 1b. The data set is described as follows: HCVpp genotype infection of Huh-7 cells, 24-well. The data set is classed as cell-based, HCV. The following applies: Hepatitis C virus. The protocol: as §1, §2, §4, §5
In data set [6] the test system is HCVpp 2a. The data set is described as follows: HCVpp genotype infection of Huh-7 cells, 24-well. The class given is cell-based, HCV. To be noted: Hepatitis C virus. The protocol: as §1, §2, §4, §5
The test system of data set [7] is HCVpp 2b. The data set is described as follows: HCVpp genotype infection of Huh-7 cells, 24-well. The following applies: Hepatitis C virus. The class given is cell-based, HCV. The protocol: as §1, §2, §4, §5
Data set [8] has as its system HCVpp 4a. The data set is described as follows: HCVpp genotype infection of Huh-7 cells, 24-well. The class given is cell-based, HCV. The following applies: Hepatitis C virus. On the procedure:
as §1, §2, §4, §5

Data set [9] has as its system HCVpp 6a. Nature of the data set: HCVpp genotype infection of Huh-7 cells, 24-well. The class given is cell-based, HCV. The following applies: Hepatitis C virus. On the procedure:
as §1, §2, §4, §5

The subject of data set [10] is HCV genotypes 1a, 1b, 2a, 2b, 4a and 6a. Nature of the data set: HCVpp infection assays over all genotypes tested (summary statements). The data set is classed as cell-based. The protocol: as §1, §2
The analysis of the effect of 281816 ligand on Huh-7 infection by HCVpp bearing envelope proteins from different genotypes was performed in 24-well plates using the method described above. […]

A short description of data set [11]: MTS viability / hepatocyte toxicity assay. The data set is classed as cell-based. The following applies: human. The protocol:
as §4, §3

Data set [12] deals with hepatocytes. The data set is described as follows: MTS viability / hepatocyte toxicity assay. The class given is cell-based. To be noted: over the concentrations tested in the infection assays, highest 10 μM. On the procedure:
as §4, §3

Data set [13] has as its target T1, HCV E2 protein binding to native CD81 on Raji cells (Hepatitis C virus genotype 1b, UniProt Q9WMX2).
T1 construct: encoding amino acids 384-656 of the Con1 envelope protein 2 ectodomain (eE2); Protein A (C); made in house; host or cells: E2: HEK293T cells (inferred); CD81: endogenous on Raji cells
Nature of the data set: Flow cytometry: recombinant HCV E2 binding to native CD81 on Raji cells. The data set is classed as cell-based, human. To be noted: E2 pre-incubated with 1-400 μM ligand; flow cytometry MFI. On the procedure:
The human B cell line, Raji, which expresses high levels of CD81 on its surface was used to determine if ligands could inhibit the binding of HCV-E2 protein to native CD81. Cells were grown in RPMI medium (10% fetal calf serum, 1% penicillin/streptomycin, 1% L-glutamine, 1% non-essential amino acids, 1% sodium pyruvate, pH 7.4) at 37° C. in an atmosphere of 5% CO2. Purified HCV-E2 protein (4 μg) was pre-incubated with 1,5,15, 50, 100 or 400 μM of the ligand 281816 for 25 min RT. After pre-incubation the E2-ligand complex was added to the cells and incubated for 25 min. The complexes were washed from the cells and 0.5 μg of anti E2 antibody (clone H53) was added followed by secondary anti mouse-FITC (Southern Biotechnology). The cells were washed, fixed with 3% paraformaldehyde, and analyzed by flow cytometry (BD FACSCalibur, software: Cell Quest Pro) analysis. The mean fluorescence intensity (MFI) was calculated using Flowjo software (TreesStar, www.flowjo.com).
Ligand 281816 was selected based on the prediction by docking that it would bind to a site on the HCV E2 protein where CD81 binds. To confirm that the binding of 281816 to E2 inhibits the HCV E2-CD81 interaction, flow cytometry was used to monitor the binding of a recombinant form of the E2 protein to native CD81 overexpressed on Raji cells as a function of 281816 concentration.
(In general: Flow cytometry measures light scatter and fluorescence of single cells or particles in a stream.)

Bounds are passed on as bounds.

T1 sequence (Q9WMX2 384-656): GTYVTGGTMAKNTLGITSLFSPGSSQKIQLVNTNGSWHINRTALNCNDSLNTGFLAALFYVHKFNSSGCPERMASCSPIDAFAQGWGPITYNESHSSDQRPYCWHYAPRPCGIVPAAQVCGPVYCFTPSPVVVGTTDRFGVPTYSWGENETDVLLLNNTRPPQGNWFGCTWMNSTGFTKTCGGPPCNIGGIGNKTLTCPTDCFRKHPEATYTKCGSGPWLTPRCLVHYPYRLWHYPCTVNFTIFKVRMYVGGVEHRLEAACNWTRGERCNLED

For the compound `CSc1ccc2c(c1)C(N1CCN(C)CC1)Cc1ccccc1S2` (centres unmarked) [Ligand 281816], the IC50 – broadly, the concentration needed to halve the response being measured – in [1] was over 10 µM; in data set [2], 1.02 µM; in data set [3], 3.95 µM; in data set [4] it was 2.95 µM; in data set [5] it was 4.66 µM; in [6] it was 2.22 µM. The IC50 was 2.93 µM in data set [7]; 3.44 µM in data set [8]; 3.3 µM in data set [9]; 2.2 to 4.6 µM in data set [10] (Hepatitis C virus, read-out: IC50 range over HCV genotypes). Moreover, the “block of hepatocyte infection (in words)” value in [10] (genotypes 1a, 1b, 2a, 2b, 4a and 6a) was “block infection of hepatocytes by each of the HCV genotypes and subtypes tested”. Besides, in [11], the CC50 (usually the concentration that lowers cell viability or growth by half) worked out at 14 µM. In addition, the hepatocyte toxicity entry in data set [12] was “not observed”. Moreover, in data set [13], the “inhibition of E2 protein binding to CD81 on Raji cells” value is “inhibited by 281816 in a dose-dependent manner up to 100 μM”.
